Laboratory results as given in patent publication US20110107445A1, “Efficient Insertion of DNA Into Embryonic Stem Cells” (ITI Scotland Limited, priority 2008, published 2011).
Blank lines part the entries; values can stand above or below the compound they belong to.

How the values were obtained:
[1] = target: T1, CYP3A4 (Homo sapiens, UniProt P08684); test: In vitro oxidation of 7-BQ by pooled human liver microsomes; assay type: in vitro ADME
T1 construct: tissue Gentest 452172; host or cells: pooled (male) human liver microsomes
From the text: FIG. 24. 7-BQ oxidation by liver (A) and intestinal (B) microsomes from C57BL/6J, hCYP3A4/3A7_Cyp3a KO, hCYP3A4_Cyp3a KO and Cyp3a KO mice Data generated according to CXR approved Laboratory Method Sheet Fluor-0005. Apart from bars for untreated transgenic/knock-out mice, which represent a single measurement, data are mean±SD (n=3 for C57BL/6J microsomes; n=2 for microsomes from PCN treated transgenic strains and human liver microsomes (HLM)). Activities of samples from treated hCYP3A4/3A7_Cyp3a KO and hCYP3A4_Cyp3a KO mice were compared to that from Cyp3a KO line with an unpaired t test (two tailed P values).

[2] = system: CYP3A4; assay type: in vitro ADME, mouse
From the text: FIG. 24. 7-BQ oxidation by liver (A) and intestinal (B) microsomes from C57BL/6J, hCYP3A4/3A7_Cyp3a KO, hCYP3A4_Cyp3a KO and Cyp3a KO mice Data generated according to CXR approved Laboratory Method Sheet Fluor-0005. Apart from bars for untreated transgenic/knock-out mice, which represent a single measurement, data are mean±SD (n=3 for C57BL/6J microsomes; n=2 for microsomes from PCN treated transgenic strains and human liver microsomes (HLM)). Activities of samples from treated hCYP3A4/3A7_Cyp3a KO and hCYP3A4_Cyp3a KO mice were compared to that from Cyp3a KO line with an unpaired t test (two tailed P values). 3 homozygous male mice per strain were used throughout. Two mice were administered with 5-Pregnen-3β-ol-20-one-16α-carbonitrile (PCN) (100 mg/kg/2 daily doses/IP) and one mouse was given the vehicle (corn oil). […] Wild type (WT) and Cyp3a KO animals were included as controls (n=3 for WT, pooled; n=1-2 for Cyp3a KO). Animals were sacrificed 24 hrs post final dose. Liver and duodenal microsomes were analysed for CYP3A4 expression and catalytic activity.

[3] = system: CYP3A4; test: In vitro DBF oxidation by mouse liver and intestinal microsomes; assay type: in vitro ADME
Method: The total reaction volume was 1 mL. Fluorescein fluorescence was recorded using an F-4500 fluorescence spectrophotometer (Hitachi), excitation 485 nm and emission 538 nm. Fluorescein standard (10 μL, 25 μM) was injected into the reaction cuvette approximately 150 sec after the addition of NADPH. Slopes of the time course of the product accumulation were calculated using FL-Solution 2.0 (Hitachi).

[4] = Plasma clinical chemistry of PCN treated mice; assay type: in vivo, mouse; conditions: PCN treated hCYP3A4_Cyp3a KO mice compared to treated C57BL/6J mice
Method: (§1) The mice received either corn oil (vehicle) or PCN 100 mg/kg, daily, for 2 days by intraperitoneal (IP) injection according to the experimental design described in Table 3. Dosing solutions were prepared at CXR Biosciences on the day of dosing by adding the vehicle (corn oil) to the requisite quantity of the PCN. The concentration of PCN was the concentration of supplied chemical, without any correction for purity. Excess dosing solution was stored at approximately 2-8° C. for possible future analysis. The volume of dosing solution was 10 mL/kg bodyweight. Approximately 24 h after the second dose, the mice were euthanized using a rising concentration of CO2. Blood was collected at termination by cardiac puncture into lithium/heparin coacted tubes for plasma preparation.
Plasma samples were produced by removing red blood cells by centrifugation (2,000-3,000 rpm for 10 min at 8-10° C.). The supernatant (plasma) was stored on ice prior to clinical chemistry analysis. The pellet was discarded. Plasma samples from all animals were analysed for triglycerides, alanine aminotransferase, alkaline phosphatase, aspartate aminotransferase, albumin, cholesterol, bilirubin (total and direct), high and low density lipoproteins using the COBAS Integra 400+ (Roche), and the results are shown in FIGS. 19-21. […]

[5] = Body and liver weights of PCN treated mice; assay type: in vivo, mouse; conditions: for Liver per body weight, percentage of C57BL/6J from the same treatment group / Liver per body weight, percentage of control group of the same strain / Body weight / Liver per body weight / Liver weight: PCN 100 mg/kg daily for 2 days IP; for Body weight / Liver per body weight / Liver weight: mean ± SD
Method: as §1
The body weight of each mouse was recorded at the start of the study and immediately prior to termination. Bodyweights were recorded electronically or manually and records of these weights were stored in the study file.
In order to weigh the liver, the gall bladder was removed, and then the liver was removed and weighed. Two samples of liver (approximately 5 mm^3) were immediately flash frozen in a cryovial in liquid nitrogen then stored at approximately −70° C. for RNA analysis. The remaining liver was weighed and immediately used for subcellular fractionation to homogenates and microsomes.

[6] = system: CYP3A4; test: Western blot of liver and intestinal microsomes for CYP3A4 protein; assay type: in vivo, mouse
Method: as §1
The duodenum (first 10 cm from the base of the stomach) was removed and flushed with ice cold PBS containing a protease inhibitor cocktail (Roche). The first 2 cm was but and placed into a 2 ml cryvial containing 1 ml of TRIZOL (Sigma), flash frozen immediately, and then stored at approximately −70° C. for Taqman® analysis. The remainder of the duodenum was placed in a 1 ml cryovial and flash frozen immediately, and then stored at approximately −70°.
Liver microsomes were produced by preparing subcellular fractions from fresh livers. The livers were processed as described above to homogenates and microsomes. Aliquots from liver samples were stored at approximately −70° prior to analysis.
Frozen small intestines were homogenised in SET with protease cocktail inhibitor (Roche) and PMSF (mM) using a Polytron homogeniser. The homogenates were subjected to subcellular fractionation as described above. The microsomal fractions were stored at approximately −70° prior to analysis.
Liver microsomes from C57BL/6J, hCYP3A4/3A7_Cyp3a KO, hCYP3A4_Cyp3a KO and Cyp3a KO mice were analysed by Western blotting using an antibody specific to CYP3A4 and the results are shown in FIG. 22. There was a clear protein band for CYP3A4 on the Western blot of liver and intestinal microsomes from vehicle treated hCYP3A4/3A7_Cyp3a KO mice. […]

[7] = system: CYP3A7 mRNA; conditions: mouse, in vivo
Method: 3 homozygous male mice per strain were used throughout. Two mice were administered with 5-Pregnen-3β-ol-20-one-16α-carbonitrile (PCN) (100 mg/kg/2 daily doses/IP) and one mouse was given the vehicle (corn oil). […] Wild type (WT) and Cyp3a KO animals were included as controls (n=3 for WT, pooled; n=1-2 for Cyp3a KO). Animals were sacrificed 24 hrs post final dose. Liver and duodenal microsomes were analysed for CYP3A4 expression and catalytic activity.
as §1, with “Approximately 24 h after the second dose, the mice were euthanized using a rising concentration of CO2. Blood was collected at termination by cardiac puncture into lithium/heparin coacted tubes for plasma preparation.” left out
For each target gene a reaction with the lowest dCt value was identified and that dCt value was subtracted from all other dCt, giving so-called ddCt (ddCt of the sample with the lowest dCt (endogenous reference) equals 0). Finally, the normalised relative amount of target gene (RQ) was calculated using the following formula: RQ=(2̂(−ddCt))*100 as shown in Table 9.

T1 sequence (P08684 whole entry): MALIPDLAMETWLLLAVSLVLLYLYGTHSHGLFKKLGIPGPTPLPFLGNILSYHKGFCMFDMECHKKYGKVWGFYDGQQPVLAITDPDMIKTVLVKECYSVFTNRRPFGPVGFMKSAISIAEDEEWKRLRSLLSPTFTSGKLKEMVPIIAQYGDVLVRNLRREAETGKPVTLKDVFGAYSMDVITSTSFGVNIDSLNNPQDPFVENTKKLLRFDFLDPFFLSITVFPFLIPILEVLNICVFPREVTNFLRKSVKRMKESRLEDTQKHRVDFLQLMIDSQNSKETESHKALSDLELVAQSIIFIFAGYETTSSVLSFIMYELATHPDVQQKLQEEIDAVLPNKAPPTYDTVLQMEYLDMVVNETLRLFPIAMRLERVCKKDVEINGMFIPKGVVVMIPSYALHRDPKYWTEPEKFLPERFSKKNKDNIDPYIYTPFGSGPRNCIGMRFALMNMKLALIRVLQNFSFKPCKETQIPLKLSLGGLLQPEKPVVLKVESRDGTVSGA

7-BQ oxidation reaction rate [1]: low reaction rate | 7-BQ oxidation [2]: marked decrease | 7-BQ oxidation, recovery of activity [2]: small and not statistically significant
Compound: c1ccc(COc2ccc3cccnc3c2)cc1 [7-BQ, 7-benzyloxyquinoline]

DBF oxidation reaction rate ([3]; hCYP3A4/3A7_Cyp3a KO microsomes compared to hCYP3A4_Cyp3a KO): higher | DBF oxidation activity ([3]; liver and intestinal samples from untreated humanised mice compared to Cyp3a KO): little increase | DBF oxidation activity, difference humanised vs Cyp3a KO ([3]; samples from the PCN treated groups): significantly more pronounced
Compound: O=C(OCc1ccccc1)c1ccccc1-c1c2ccc(=O)cc-2oc2cc(OCc3ccccc3)ccc12 [DBF]

plasma level of cholesterol, low and high density lipoproteins, alanine transferase and alkaline phosphatase [4]: statistically significant increases | Liver weight ([5]; C57BL/6J mice, n=3): 1.10 ± 0.06 g | Liver weight ([5]; Cyp3a KO mice, n=2): 1.22 ± 0.15 g | Liver weight ([5]; hCYP3A4/3A7_Cyp3a KO mice, n=2): 1.06 ± 0.27 g | Liver weight ([5]; hCYP3A4_Cyp3a KO mice, n=2): 1.00 ± 0.09 g | 7-BQ oxidation activity in response to PCN [2]: no increase in activity | hepatic and intestinal CYP3A4 expression ([6]; both humanised lines, treatment with PCN): strong induction | intestinal CYP3A4 protein upregulation (Western blot) ([6]; intestinal microsomes, humanised mice, compared with liver upregulation): less pronounced | liver CYP3A4 protein (Western blot) ([6]; liver microsomes, humanised mice, PCN 100 mg/kg/2 days/IP): strong upregulation | CYP3A7 mRNA (Q-PCR) [7]: possible induction of CYP3A7
Compound: CC(=O)[C@H]1[C@H](C#N)C[C@H]2[C@@H]3CC=C4C[C@@H](O)CC[C@]4(C)[C@H]3CC[C@@]21C [PCN, 5-Pregnen-3β-ol-20-one-16α-carbonitrile]
Liver per body weight, percentage of C57BL/6J from the same treatment group ([5]; C57BL/6J mice): 100 ± 2.1 % | Liver per body weight, percentage of control group of the same strain ([5]; C57BL/6J mice): 131 ± 2.7 % | Body weight ([5]; C57BL/6J mice, n=3): 19.30 ± 0.82 g | Liver per body weight ([5]; C57BL/6J mice, n=3): 5.70 ± 0.12 % | liver/body weight ratio ([5]; C57BL/6J mice, PCN administration vs control): significantly (P<0.001) increased | Liver per body weight, percentage of C57BL/6J from the same treatment group ([5]; Cyp3a KO mice): 89 ± 4.4 % | Liver per body weight, percentage of control group of the same strain ([5]; Cyp3a KO mice): 121 ± 6.0 % | Body weight ([5]; Cyp3a KO mice, n=2): 24.05 ± 1.77 g | Liver per body weight ([5]; Cyp3a KO mice, n=2): 5.06 ± 0.25 % | liver/body weight ratio ([5]; all treated transgenic mice vs treated wild type, significant (P<0.05) only in Cyp3a KO group): decreased liver/body weight ratio compared to the treated wild type | Liver per body weight, percentage of C57BL/6J from the same treatment group ([5]; hCYP3A4/3A7_Cyp3a KO mice): 97 ± 21.1 % | Liver per body weight, percentage of control group of the same strain ([5]; hCYP3A4/3A7_Cyp3a KO mice): 120 ± 26.1 % | Body weight ([5]; hCYP3A4/3A7_Cyp3a KO mice, n=2): 19.15 ± 0.64 g | Liver per body weight ([5]; hCYP3A4/3A7_Cyp3a KO mice, n=2): 5.53 ± 1.20% | Liver per body weight, percentage of C57BL/6J from the same treatment group ([5]; hCYP3A4_Cyp3a KO mice): 93 ± 4.6 % | Liver per body weight, percentage of control group of the same strain ([5]; hCYP3A4_Cyp3a KO mice): 113 ± 5.6 % | Body weight ([5]; hCYP3A4_Cyp3a KO mice, n=2): 19.00 ± 0.71 g | Liver per body weight ([5]; hCYP3A4_Cyp3a KO mice, n=2): 5.27 ± 0.26%
